Data set [1] in a line: UV-vis titration (ΔA550) with glutaric acid in CHCl3. It counts as binding. On the procedure:
FIG. 3 discloses the change in the visible absorption spectrum of Cu(1)2^+ BF4^- upon addition of glutaric acid in CHCl3 [Cu(1)2^+ BF4^- ]=0.106 mM, [glutaric acid]=0-0.5 mM.
FIG. 4 discloses the change in the visible absorption spectrum of [Cu(L)2^+ BF4^- ] upon addition of glutaric acid in CHCl3. [Cu(L)2^+ BF4^- ]=0-0.125 mM [glutaric acid]=0-0.40 mM.
(§1) Complexation of Receptor 1 with Dicarboxylic Acids. Receptor 1 is a bis(acylaminopyridine) receptor and as such was expected to form strong bidentate interactions with dicarboxylic acids in chloroform. This was indeed the case, as 1 was found by NMR to bind glutaric acid with an association constant of 3.6×10^4 M^-1. Large changes in proton chemical shifts of 1 indicate that the dicarboxylic acid is hydrogen bonded simultaneously to the two acylaminopyridines moieties. […] The contribution of the phenanthroline to binding is uncertain, but it appears to play only a minor role; no protons on the phenanthroline ring shifted more than 0.014 ppm during the course of the titration. […] The stoichiometry of the complexes was 2:1 as determined by the concentration of dicarboxylic acid at which saturation of the receptor was found and independently determined by a Job's plot. A Job's plot is used to measure stoichiometry based on continuous variations of constant concentrations. Binding was most conveniently followed by UV-vis spectroscopy (ΔA550) and was checked against NMR results for pimelic acid and glutaric acid. The binding data was analyzed by assuming that two independent and equal bidentate binding sites are interacting with the substrate. In this way a single association constant is obtained that represents the strength of binding of one of the receptor binding sites with one substrate. […] An exception was N-Cbz-glutamic acid, which is understandable because there are several diastereotopic complexes present (vide infra), each with a different Ka.
(§2) From comparison of FIG. 3 with FIG. 4 which is a change in the visible absorption spectrum of Cu(L)2^+ BF4^- upon addition of glutaric acid, it is clear that the bis-dicarboxylic acid receptor, Cu(1)2^+ BF4^-, is more chromogenic than a mono-dicarboxylic acid receptor, Cu(L)2^+ BF4^-. [drawing 1] The relative change in A550 is 3-4 times greater for Cu(1)2^+ BF4^- than for Cu(L)2^+ BF4^-. A summary of the spectral changes that occur upon complex formation are present in Table 2 below. […]
The origin of the chromogenic effect is definitely a direct result of the bidentate binding of dicarboxylic acids to the receptors. Addition of large excesses of monocarboxylic acids (acetic or trifluoroacetic) to a CHCl3 solution of either Cu(I)-based receptor leads to only minor changes in the absorbance spectrum. […]

The nature of data set [2]: UV-vis titration (ΔA550) with pimelic acid in CHCl3. It counts as binding.
Description: as §1
(§3) Also reported in Table 2 are the λmax and the relative change in the absorptivity at 550 nm for each substrate/receptor combination. The changes in the absorption spectra are definitely substrate dependent. For example, complexation of pimelic acid results in a less pronounced increase in the shoulder near the red edge and a smaller blue shift in λmax (for Cu(1)2^+ BF4^-,λmax =445 nm) than complexation of the 5-carbon acids, glutaric and N-Cbz-glutamic. […]

A further data set in a line: air stability. Type of data set: physicochemical. Conditions: Cu(I) complex.
A short description of data set [3]: UV-vis titration (ΔA550) with 1,3-phenylenediacetic acid in CHCl3. Type of data set: binding.
Description: as §1, §3

Data set [4] is described as follows: UV-vis titration (ΔA550) with N-Cbz-glutamic acid in CHCl3. Type of data set: binding. An excerpt:
Complexation of Receptor 1 with Dicarboxylic Acids. Receptor 1 is a bis(acylaminopyridine) receptor and as such was expected to form strong bidentate interactions with dicarboxylic acids in chloroform. This was indeed the case, as 1 was found by NMR to bind glutaric acid with an association constant of 3.6×10^4 M^-1. Large changes in proton chemical shifts of 1 indicate that the dicarboxylic acid is hydrogen bonded simultaneously to the two acylaminopyridines moieties. […] The contribution of the phenanthroline to binding is uncertain, but it appears to play only a minor role; no protons on the phenanthroline ring shifted more than 0.014 ppm during the course of the titration. […] The stoichiometry of the complexes was 2:1 as determined by the concentration of dicarboxylic acid at which saturation of the receptor was found and independently determined by a Job's plot. A Job's plot is used to measure stoichiometry based on continuous variations of constant concentrations. […] The binding data was analyzed by assuming that two independent and equal bidentate binding sites are interacting with the substrate. […]
In the binding mode proposed in FIG. 5, the structure of the 2:1 complex of glutaric acid with Cu(1)2^+ BF4^- is chiral, similar to a double helix. […] This complicates the analysis of binding because six possibly different binding constants need to be evaluated. […]

Data set [5] in a line: complexation with dicarboxylic acids in CHCl3 (UV-vis, NMR, Job's plot). Type of data set: binding.
Description: as §1, §2

Data set [6] in a line: NMR titration with pimelic acid. Type of data set: binding. An excerpt:
(§4) Complexation of Receptor 1 with Dicarboxylic Acids. Receptor 1 is a bis(acylaminopyridine) receptor and as such was expected to form strong bidentate interactions with dicarboxylic acids in chloroform. This was indeed the case, as 1 was found by NMR to bind glutaric acid with an association constant of 3.6×10^4 M^-1. Large changes in proton chemical shifts of 1 indicate that the dicarboxylic acid is hydrogen bonded simultaneously to the two acylaminopyridines moieties. […] The contribution of the phenanthroline to binding is uncertain, but it appears to play only a minor role; no protons on the phenanthroline ring shifted more than 0.014 ppm during the course of the titration. […] The stoichiometry of the complexes was 2:1 as determined by the concentration of dicarboxylic acid at which saturation of the receptor was found and independently determined by a Job's plot. A Job's plot is used to measure stoichiometry based on continuous variations of constant concentrations. Binding was most conveniently followed by UV-vis spectroscopy (ΔA550) and was checked against NMR results for pimelic acid and glutaric acid. The binding data was analyzed by assuming that two independent and equal bidentate binding sites are interacting with the substrate. In this way a single association constant is obtained that represents the strength of binding of one of the receptor binding sites with one substrate. […]

Data set [7] is described as follows: NMR titration with glutaric acid. It counts as binding.
Description: as §4

The mark [8] stands for this setting: CHCl3, UV-vis ΔA550, per binding site.

On to `Cc1cccc(NC(=O)c2ccc(-c3ccc4ccc5ccc(-c6ccc(C(=O)Nc7cccc(C)n7)cc6)nc5c4n3)cc2)n1.Cc1cccc(NC(=O)c2ccc(-c3ccc4ccc5ccc(-c6ccc(C(=O)Nc7cccc(C)n7)cc6)nc5c4n3)cc2)n1.F[B-](F)(F)F.[Cu+]` [Cu(1)2^+ BF4^-], for which the “Binding Constant (Ka) UV-vis” value stood at 78000 M⁻¹ in data set [1] (glutaric acid, CHCl3, UV-vis ΔA550, per binding site); 17000 M⁻¹ in data set [2] (setting [8]); 35000 M⁻¹ in data set [3] (setting [8]); 40000 M⁻¹ in data set [4] (CHCl3, UV-vis ΔA550, several diastereomeric complexes, all Ka assumed equal). Besides, the “relative change in A550, compared with Cu(L)2^+ BF4^-” value in data set [1] (glutaric acid, FIG. 3 vs FIG. 4) is listed as 3-4 times. The “% Increase ( = 550 nm)” value amounted to 101% in data set [1] (glutaric acid, absorptivity at 550 nm); 62% in data set [2] (absorptivity at 550 nm); 111% in data set [3] (absorptivity at 550 nm); 105% in data set [4] (absorptivity at 550 nm). The “color change upon complexation” value in data set [1] (two equivalents of glutaric acid) is “obvious color change from pale orange to bright red”. For the same compound, the “spectral change relative to the other dicarboxylic acids” value in data set [2] was “smallest changes in the spectrum”; in data set [3], “largest change”. Also, the air stability result in “air stability” is listed as “air stable”. The “positive cooperativity in binding of second equivalent of dicarboxylic acid” value in data set [5] is “not observed”. Besides, in data set [5] (each dicarboxylic acid of Table 1), the “color change on binding” value is given as “distinct color change from pale orange to bright red”. Besides, the “Binding Constant (Ka) NMR” value in data set [6] is 40000 M⁻¹; in data set [7] it was 71000 M⁻¹.
With `Cc1cccc(NC(=O)c2ccc(-c3ccc4ccc5ccc(-c6ccc(C(=O)Nc7cccc(C)n7)cc6)nc5c4n3)cc2)n1` [Receptor 1], in data set [5] (uncoordinated ligand), the “receptor strength for dicarboxylic acids” value is “good receptor for dicarboxylic acids”. The association constant in data set [7] (uncoordinated receptor, chloroform) is 36000 M⁻¹.

The values above are taken from patent US5998594A, “Self-assembling, chromogenic receptors for the recognition of medically important substrates and their method of use” (University of Pittsburgh of the Commonwealth System of …, priority 1994, dated 1999).
